Laboratory results taken from ChEMBL document CHEMBL4613204, “Lysine demethylase 5B (KDM5B): A potential anti-cancer drug target” (Eur J Med Chem, 2019).
One block for each compound: values may come before it.

Columns and labels:
[1] = biological target: T1, Lysine-specific demethylase 5B (Homo sapiens, UniProt Q9UGL1); test: Inhibition of KDM5B (unknown origin)
[2] = system: MCF7; test: Antiproliferative activity against human MCF7 cells assessed as growth inhibition; format: functional
[3] = system: MDA-MB-231; test: Antiproliferative activity against human MDA-MB-231 cells assessed as growth inhibition; format: functional
[4] = biological target: Lysine-specific demethylase 5C (Homo sapiens, UniProt P41229); test: Inhibition of KDM5C (1 to 789 residues) (unknown origin)
Chain of Lysine-specific demethylase 5C (P41229 whole entry, the tested form may be a part): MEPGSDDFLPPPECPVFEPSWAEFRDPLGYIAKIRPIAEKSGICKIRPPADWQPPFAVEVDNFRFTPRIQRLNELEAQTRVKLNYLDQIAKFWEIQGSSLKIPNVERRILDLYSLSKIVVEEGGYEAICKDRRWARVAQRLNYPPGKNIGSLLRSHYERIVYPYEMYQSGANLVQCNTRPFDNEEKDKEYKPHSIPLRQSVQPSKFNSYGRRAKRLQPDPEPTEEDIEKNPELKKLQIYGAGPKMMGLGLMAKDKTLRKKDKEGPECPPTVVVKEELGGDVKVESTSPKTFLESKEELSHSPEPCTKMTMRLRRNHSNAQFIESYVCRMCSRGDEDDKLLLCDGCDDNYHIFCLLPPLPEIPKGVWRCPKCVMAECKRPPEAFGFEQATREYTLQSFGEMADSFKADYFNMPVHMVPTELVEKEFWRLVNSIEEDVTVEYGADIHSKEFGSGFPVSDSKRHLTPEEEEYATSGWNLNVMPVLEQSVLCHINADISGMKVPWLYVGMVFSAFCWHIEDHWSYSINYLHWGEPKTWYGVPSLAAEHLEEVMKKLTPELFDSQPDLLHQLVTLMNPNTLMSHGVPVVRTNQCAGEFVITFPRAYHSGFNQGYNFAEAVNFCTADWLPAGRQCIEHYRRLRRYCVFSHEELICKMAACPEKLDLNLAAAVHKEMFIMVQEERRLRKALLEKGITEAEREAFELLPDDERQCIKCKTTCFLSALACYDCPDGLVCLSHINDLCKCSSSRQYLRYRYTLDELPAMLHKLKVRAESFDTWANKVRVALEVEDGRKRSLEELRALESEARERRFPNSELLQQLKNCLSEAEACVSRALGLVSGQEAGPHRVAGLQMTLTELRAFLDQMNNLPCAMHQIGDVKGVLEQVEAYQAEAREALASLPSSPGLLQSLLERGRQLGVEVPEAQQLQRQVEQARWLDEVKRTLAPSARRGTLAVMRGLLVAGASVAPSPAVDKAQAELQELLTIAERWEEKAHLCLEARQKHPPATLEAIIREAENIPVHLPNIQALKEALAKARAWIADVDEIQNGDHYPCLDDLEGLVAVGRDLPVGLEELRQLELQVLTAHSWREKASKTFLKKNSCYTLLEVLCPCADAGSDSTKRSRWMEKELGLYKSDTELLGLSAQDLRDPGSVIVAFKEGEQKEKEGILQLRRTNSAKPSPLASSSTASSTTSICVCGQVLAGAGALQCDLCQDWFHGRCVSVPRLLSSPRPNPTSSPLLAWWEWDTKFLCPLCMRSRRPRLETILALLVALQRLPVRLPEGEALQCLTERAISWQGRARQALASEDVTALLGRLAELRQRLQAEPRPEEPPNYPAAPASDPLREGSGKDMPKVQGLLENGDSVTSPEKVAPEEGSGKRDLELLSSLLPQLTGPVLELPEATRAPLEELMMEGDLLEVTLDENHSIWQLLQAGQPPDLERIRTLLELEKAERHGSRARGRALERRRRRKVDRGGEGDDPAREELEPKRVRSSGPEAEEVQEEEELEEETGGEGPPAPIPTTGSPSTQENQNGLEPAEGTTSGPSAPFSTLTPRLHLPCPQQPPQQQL

[5] = Selectivity ratio of GI50 for human […] cells; format: functional
[6] = biological target: T1, Lysine-specific demethylase 5B; test: Inhibition of KDM5B (1 to 755 residues) (unknown origin)

T1 sequence (Q9UGL1 whole entry): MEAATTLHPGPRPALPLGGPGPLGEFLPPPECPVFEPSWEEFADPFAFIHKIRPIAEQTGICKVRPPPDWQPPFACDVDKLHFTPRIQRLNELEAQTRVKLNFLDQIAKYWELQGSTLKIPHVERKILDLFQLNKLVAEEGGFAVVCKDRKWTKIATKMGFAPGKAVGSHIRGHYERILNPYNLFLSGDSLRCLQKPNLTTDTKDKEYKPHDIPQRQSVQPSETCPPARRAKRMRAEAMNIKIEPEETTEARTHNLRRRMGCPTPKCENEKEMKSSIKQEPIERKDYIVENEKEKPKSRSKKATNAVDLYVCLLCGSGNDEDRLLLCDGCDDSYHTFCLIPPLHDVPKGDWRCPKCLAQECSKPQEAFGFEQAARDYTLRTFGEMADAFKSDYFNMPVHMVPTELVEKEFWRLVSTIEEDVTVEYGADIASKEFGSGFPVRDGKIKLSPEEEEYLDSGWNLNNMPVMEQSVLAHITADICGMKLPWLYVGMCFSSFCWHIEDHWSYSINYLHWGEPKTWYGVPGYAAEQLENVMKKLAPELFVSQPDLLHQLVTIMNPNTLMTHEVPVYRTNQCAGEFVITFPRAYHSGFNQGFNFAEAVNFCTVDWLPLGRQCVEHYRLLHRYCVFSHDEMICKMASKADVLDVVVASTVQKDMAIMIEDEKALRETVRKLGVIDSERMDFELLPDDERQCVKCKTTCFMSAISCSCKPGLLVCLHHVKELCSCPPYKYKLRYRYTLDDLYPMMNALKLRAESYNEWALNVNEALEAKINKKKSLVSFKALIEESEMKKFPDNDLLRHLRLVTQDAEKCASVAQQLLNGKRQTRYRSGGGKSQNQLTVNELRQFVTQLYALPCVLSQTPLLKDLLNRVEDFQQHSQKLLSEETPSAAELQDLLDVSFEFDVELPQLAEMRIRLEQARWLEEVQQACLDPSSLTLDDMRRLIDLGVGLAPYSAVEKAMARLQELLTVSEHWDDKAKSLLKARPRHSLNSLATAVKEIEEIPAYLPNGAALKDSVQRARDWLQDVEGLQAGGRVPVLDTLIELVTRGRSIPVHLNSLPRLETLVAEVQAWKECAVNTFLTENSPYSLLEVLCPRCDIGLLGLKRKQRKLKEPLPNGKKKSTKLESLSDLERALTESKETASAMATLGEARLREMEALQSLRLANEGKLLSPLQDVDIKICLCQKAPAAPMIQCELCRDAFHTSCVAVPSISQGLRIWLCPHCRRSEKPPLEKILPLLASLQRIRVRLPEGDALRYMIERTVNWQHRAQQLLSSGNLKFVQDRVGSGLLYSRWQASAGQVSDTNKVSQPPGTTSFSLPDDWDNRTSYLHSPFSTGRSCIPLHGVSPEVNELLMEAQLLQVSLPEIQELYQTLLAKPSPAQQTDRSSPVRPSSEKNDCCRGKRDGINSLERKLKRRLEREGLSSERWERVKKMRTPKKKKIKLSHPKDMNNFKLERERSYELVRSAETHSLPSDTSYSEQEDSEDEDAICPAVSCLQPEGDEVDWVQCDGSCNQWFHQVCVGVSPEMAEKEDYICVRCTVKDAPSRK

SMILES: O=C(O)CCC(=O)C(=O)O [ALPHA-KETOGLUTARIC ACID]
IC50 [1]: 800000 nM

SMILES: Clc1ccc(N/N=C(\c2ccccc2)c2ccccn2)nc1
GI50 [2]: 22 nM | GI50 [3]: 300 nM | IC50 [4]: 42000 nM | Selectivity ratio [5]: 14 | IC50 [6]: 5000 nM

SMILES: Cc1ccc(-n2sc3ccccc3c2=O)cc1
IC50 [1]: 3000 nM

More lines, now with the values ahead:

IC50 [1]: 20 nM
SMILES: CCOC(=O)c1c(O)c2ccncc2[nH]c1=O

IC50 [1]: 10 nM
SMILES: CC(C)c1c(-c2ccccc2)[nH]c2c(C#N)cnn2c1=O
